Where two headings read alike, the source gives them in different places.
Key:
[1] = test system: prostate cancer VCap cells; assay: Proliferation-inhibiting activity on VCap cells (CellTiter-Glo); assay type: cell-based; conditions: Homo sapiens; VCap cell line, CellTiter-Glo (FIG. 6)
Method: The cell proliferation-inhibiting activity of the compounds was determined using the CellTiter-Glo Luminescent Cell Viability Assay (Promega, Madison, WI). The cells were seeded in a 96-well plate in their respective culture media and incubated at 37°C in a 5% CO2 incubator. After overnight incubation, serial dilutions of the compounds were prepared and added to the 96-well plate. A volume of CellTiter-Glo reagent equal to the volume of the cell culture medium present in each well was added (e.g., 100 microliters of the reagent was added to 100 microliters of the culture medium for the cells in the 96-well plate). The contents were mixed on an orbital shaker for 2 min to induce cell lysis. The 96-well plate was incubated at room temperature for 10 minutes to stabilize a luminescent signal. Luminescence was recorded: the luminescence signal of each well was acquired using an Infinite M1000 Pro plate reader (Tecan, Zürich, Switzerland), and the data were analyzed using GraphPad Prism software (GraphPad Software Inc, La Jolla, CA).

CDK12 and CDK13 proteins [2] = assay: Degradation activity on CDK12/13 in 22RV1 cells (Western Blot); assay type: cell-based; conditions: for induction of degradation of CDK12 and CDK13 proteins: cell line and concentration not given there; for degradation of CDK12 and CDK13 proteins / degradation of CDK12 and CDK13 protein levels in cells / dose dependence of degradation of CDK12 and CDK13 proteins: 22RV1 cells; for degradation of CDK12 and CDK13 proteins: 100 nM, 6 h (FIG. 5); for degradation of CDK12 and CDK13 protein levels in cells: 500 nM, 6 hours, WB (FIG. 4); for dose dependence of degradation of CDK12 and CDK13 proteins: different concentrations, 6 h (FIG. 4B, FIG. 5)
Method: Experimental methods: The cell line, 22RV1 cell line was purchased from the American Type Culture Collection (ATCC). Conventional Western Blot was used for detection as follows: 22RV1 cells were seeded in a certain number in a 12-well plate, and cultured overnight in an incubator in an adherent manner. […] The cells were lysed with a lysis buffer, and samples were collected. Then, an appropriate amount of the samples was taken for SDS-PAGE electrophoresis. After electrophoresis, the proteins were transferred to nitrocellulose membranes using a semi-dry electro-transfer system. The nitrocellulose membrane was placed in a blocking solution (5% skim milk powder diluted in TBS containing 0.1% Tween 20) and blocked at room temperature for 2 h. The membranes were then placed in a primary antibody solution (1: 1000 diluted in TBS containing 0.1% Tween 20), respectively, and incubated at 4°C overnight. The cells were washed three times with TBS containing 0.1% Tween 20, each time for 15 min. The membrane was placed in a secondary antibody solution (horseradish peroxidase-labeled goat anti-rabbit IgG, diluted at 1:1000 in TBS containing 0.1% Tween 20) and reacted at room temperature for 1 h. After washing the membrane three times as above, the membrane was developed with ECL plus reagent and photographed using Amersham Imager 600 system.

[3] = Pharmacokinetics and bioavailability test in rats (Example 60); assay type: in vivo; conditions: SD rats; for F: bioavailability calculated from AUC; for oral pharmacokinetic properties: summary in words of Tables 2-6; for Cmax / Tmax / clearance / half-life: rat
Method: (§1) Pharmacokinetics and bioavailability tests in rats. SD rats were given a single oral (10 mg/kg), intravenous (2.5 mg/kg) and intraperitoneal (10 mg/kg) dose, followed by animal blood sample collection at appropriate time points. Heparin was added for anticoagulation, and the samples were centrifuged at 8000 rpm for 6 min. The supernatant was collected and stored at -20°C for HPLC-MS analysis. The blood samples underwent protein precipitation with acetonitrile at 12 000 rpm * 10 min, and the supernatant was used for HPCL-MS analysis. The data underwent parameter fitting with DAS2.0, to obtain compartmental model and non-compartmental model parameters, respectively. The oral bioavailability of the compounds was calculated based on the area under the plasma concentration-time curve (AUC) data. […] Table 2. Pharmacokinetic experimental results of compounds YJZ9069 and YJZ1102

CDK12 and CDK13 proteins [4] = assay: Degradation activity on CDK12/13 in MDA-MB-231 cells (Western Blot); assay type: cell-based; conditions: 0.1µM or 0.3µM, 15 h, WB (FIG. 1)
Method: Experimental methods: The cell line MDA-MB-231 was purchased from the American Type Culture Collection (ATCC). Conventional Western Blot was used for detection, as follows: MDA-MB-231 cells were seeded at a density of 2 x 10^5/mL in a 12-well plate, with 1 mL per well, and cultured overnight in an incubator in an adherent manner. Then, a certain concentration of compounds was added to act for 15 h. The cells were lysed with a lysis buffer, and protein samples were collected. An appropriate amount of the sample was taken for SDS-PAGE electrophoresis. After electrophoresis, the protein was transferred to a polyvinylidene fluoride (PVDF) membrane using a wet electro-transfer system. The PVDF membrane after electro-transfer was cut into several required strips, which were then placed in a blocking solution (5% skim milk powder diluted in TBS containing 0.1% Tween 20) and blocked at room temperature for 1.5 h. A primary antibody solution was prepared by diluting a primary antibody against the corresponding target protein in TBS containing 0.1% Tween 20 according to the dilution requirements of different antibodies, such as 1:1000 (CST), 1:3000 (Proteintech, Bethyl), and 1:200 (Santacruz). The blocked membrane was placed in the corresponding primary antibody solution and incubated at 4°C for 12-14 h. Then, the cells were washed three times with TBS containing 0.1% Tween 20, each time for 5 min. After washing, the membrane was placed in a secondary antibody solution (horseradish peroxidase-labeled goat anti-rabbit IgG, diluted at 1:2000 in TBS containing 0.1% Tween 20) and reacted at room temperature for 2 h. After washing the membrane three times as above, the membrane was developed with StarSignal plus reagent (GenStar®) and Omni-ECL reagent (Yazyme®), and photographed with Amersham Imager 800 system.

[5] = Pharmacokinetics and bioavailability test in rats (Example 57); assay type: in vivo; conditions: SD rats; for MRT last: read-out: MRT(0-t); for MRT inf: read-out: MRT(0-∞)
Method: as §1, with “Table 1.” for “Table 2.”, “of compound zlc-4-93” for “of compounds YJZ9069 and YJZ1102”

[6] = Sprague-Dawley, plasma, IV 2.5 mg/kg
[7] = Sprague-Dawley, plasma, PO 10 mg/kg
[8] = Sprague-Dawley, rat, plasma, iv, i.v. 2.5 mg/kg
[9] = Sprague-Dawley, rat, plasma, Oral 10 mg/kg

## CN1C(=O)CCC(N2C(=O)c3cccc(OCC(=O)N4CCN(c5ccc(N(C(=O)NCc6ccccc6)[C@H]6CC[C@H](Nc7ncc8ccccc8n7)CC6)cc5)CC4)c3C2=O)C1=O (stereo partly drawn) [YJZ1078]
[1]
  IC50: > 5000 nM
CDK12 and CDK13 proteins [2]
  induction of degradation of CDK12 and CDK13 proteins: cannot effectively induce degradation

## O=C1CCC(N2C(=O)c3ccc(N4CCC(CN5CCN(c6ccc(N(C(=O)NCc7ccccc7)[C@H]7CC[C@H](Nc8ncc9ccccc9n8)CC7)cc6)CC5)CC4)cc3C2=O)C(=O)N1 (stereo partly drawn) [YJZ1097, 3-benzyl-1-(4-(4-((1-(2-(2,6-dioxopiperidin-3-yl)-1,3-dioxoisoindole-5-yl)piperidin-4-yl)methyl)piperazin-1-yl)phenyl)-1-((1r,4r)-4-(quinazolin-2-ylamino)cyclohexyl)urea]
[3]; PO 10 mg/kg
  F: 23.89%
[3]
  oral pharmacokinetic properties: excellent
[3]; [6]
  Cmax: 2490 ng/mL
  Tmax: 0.08 h
  clearance: 3.12 mL/min/kg
  half-life: 13.8 h
[3]; [7]
  Cmax: 593 ng/mL
  Tmax: 6.7 h
  half-life: 15.2 h
[1]
  IC50: 3.93 nM
CDK12 and CDK13 proteins [2]
  degradation of CDK12 and CDK13 proteins: almost completely degrade
  degradation of CDK12 and CDK13 protein levels in cells: effectively degrade
  dose dependence of degradation of CDK12 and CDK13 proteins: dose-dependent manner

## O=C1CCC(N2C(=O)c3ccc(N4CC(CN5CCN(c6ccc(N(C(=O)NCc7ccccc7)[C@H]7CC[C@H](Nc8ncc9ccccc9n8)CC7)cc6)CC5)C4)cc3C2=O)C(=O)N1 (stereo partly drawn) [YJZ1102]
[3]; IP 10 mg/kg
  F: 94.15%
[3]; PO 10 mg/kg
  F: 17.28%
[3]
  oral pharmacokinetic properties: excellent
[3]; in vivo, IP 10 mg/kg
  Cmax: 662 ng/mL
  Tmax: 6.67 h
  half-life: 26.4 h
[3]; in vivo, IV 2.5 mg/kg
  Cmax: 2200 ng/mL
  Tmax: 0.08 h
  clearance: 3.32 mL/min/kg
  half-life: 10.7 h
[3]; in vivo, PO 10 mg/kg
  Cmax: 148 ng/mL
  Tmax: 6 h
  half-life: 10.4 h
[1]
  IC50: 16.3 nM
CDK12 and CDK13 proteins [2]
  degradation of CDK12 and CDK13 protein levels in cells: effectively degrade

## O=C1CCC(N2C(=O)c3cc(F)c(N4CCC(N5CCN(c6ccc(N(C(=O)NCc7ccccc7)[C@H]7CC[C@H](Nc8ncc9ccccc9n8)CC7)cn6)CC5)CC4)cc3C2=O)C(=O)N1 (stereo partly drawn) [YJZ1206]
[3]; PO 10 mg/kg
  F: 39.16%
[3]
  oral pharmacokinetic properties: excellent
[3]; [6]
  Cmax: 3120 ng/mL
  Tmax: 0.08 h
  clearance: 4.29 mL/min/kg
  half-life: 5.15 h
[3]; [7]
  Cmax: 1130 ng/mL
  Tmax: 6 h
  half-life: 6.24 h
CDK12 and CDK13 proteins [2]
  degradation of CDK12 and CDK13 proteins: almost completely degrade
  degradation of CDK12 and CDK13 protein levels in cells: effectively degrade
  dose dependence of degradation of CDK12 and CDK13 proteins: dose-dependent manner

## O=C1CCC(N2C(=O)c3cccc(NCCCCCCCCCC(=O)N4CCN(c5cccc(N(C(=O)NCc6ccccc6)[C@H]6CC[C@H](Nc7ncc8ccccc8n7)CC6)c5)CC4)c3C2=O)C(=O)N1 (stereo partly drawn) [YJZ9055]
[1]
  IC50: 2200 nM
CDK12 and CDK13 proteins [2]
  induction of degradation of CDK12 and CDK13 proteins: cannot effectively induce degradation

## N#Cc1ccc(N[C@H]2CC[C@H](N(C(=O)NCc3ccccc3)c3ccc(N4CCN(C[C@@H]5CCN(c6ccc7c(c6)C(=O)N(C6CCC(=O)NC6=O)C7=O)C5)CC4)cc3)CC2)nc1 (stereo partly drawn) [ZLC5-106]
CDK12 and CDK13 proteins [4]
  degradation of CDK12 and CDK13 protein levels in cells: effectively degrade

## N#Cc1ccc(N[C@H]2CC[C@H](N(C(=O)NCc3ccccc3)c3ccc(N4CCC(CN5CC6(C5)CN(c5ccc7c(c5)C(=O)N(C5CCC(=O)NC5=O)C7=O)C6)CC4)cc3)CC2)nc1 (stereo partly drawn) [ZLC6-37]
CDK12 and CDK13 proteins [4]
  degradation of CDK12 and CDK13 protein levels in cells: effectively degrade

## N#Cc1ccc(N[C@H]2CC[C@H](N(C(=O)NCc3ccccc3)c3ccc(N4CCC(CN5CCN(c6ccc7c(c6)C(=O)N(C6CCC(=O)NC6=O)C7=O)CC5)CC4)cc3)CC2)nc1 (stereo partly drawn) [ZLC6-42]
CDK12 and CDK13 proteins [4]
  degradation of CDK12 and CDK13 protein levels in cells: effectively degrade

## N#Cc1ccc(N[C@H]2CC[C@H](N(C(=O)NCc3ccccc3)c3ccc(N4CCC5(CC4)CN(c4ccc6c(c4)C(=O)N(C4CCC(=O)NC4=O)C6=O)C5)cc3)CC2)nc1 (stereo partly drawn) [ZLC6-103]
CDK12 and CDK13 proteins [4]
  degradation of CDK12 and CDK13 protein levels in cells: effectively degrade

## N#Cc1ccc(N[C@H]2CC[C@H](N(C(=O)NCc3ccccc3)c3ccc(N4CCN(CC5CN(c6cc7c(cc6F)C(=O)N(C6CCC(=O)NC6=O)C7=O)C5)CC4)cc3)CC2)nc1 (stereo partly drawn) [ZLC7-36]
CDK12 and CDK13 proteins [4]
  degradation of CDK12 and CDK13 protein levels in cells: effectively degrade

## N#Cc1ccc(N[C@H]2CC[C@H](N(C(=O)NCc3ccccc3)c3ccc(N4CCN(C5CCN(c6ccc7c(c6)C(=O)N(C6CCC(=O)NC6=O)C7=O)CC5)CC4)cc3)CC2)nc1 (stereo partly drawn) [zlc-4-93]
[5]; Oral 10 mg/kg, bioavailability calculated from AUC
  F: 16.46%
[5]; summary in words of Table 1
  oral pharmacokinetic properties: excellent
[5]; [8]
  AUC(0-inf): 4740 ng·h/mL
  AUC(0-t): 4720 ng·h/mL
  Cmax: 2590 ng/mL
  Tmax: 0.08 h
  clearance: 9.85 mL/min/kg
  half-life: 2.38 h
  MRT last: 2.37 h
  MRT inf: 2.44 h
[5]; [9]
  AUC(0-inf): 3130 ng·h/mL
  AUC(0-t): 3110 ng·h/mL
  Cmax: 308 ng/mL
  Tmax: 4 h
  half-life: 3.04 h
  MRT last: 6.06 h
  MRT inf: 6.19 h

Reference: EP4671239A1, “ARYL SUBSTITUENT-CONTAINING DEGRADATION AGENT FOR CDK12/13, PREPARATION METHOD THEREFOR, AND PHARMACEUTICAL COMPOSITION AND USE THEREOF” (Shanghai Institute of Organic Chemistry, Chinese Academy of …, priority 2023, dated 2024)
